Results as given in the NIST ThermoML archive (doi:10.1016/j.fluid.2018.05.028).

Test: xn = mol fraction of the nth substance listed
Conditions: 101 kPa, Liquid; for viscosity: Concentric cylinders viscometry; for speed of sound: Single path-length method; for mass density: Vibrating tube method

CCCCCCCCCCCCCCCC [hexadecane] + CCCCO
Conditions	mass density, 293.15 K [kg/m3]	mass density, 298.15 K [kg/m3]	mass density, 303.15 K [kg/m3]	speed of sound, 293.15 K [m/s]	speed of sound, 298.15 K [m/s]	speed of sound, 303.15 K [m/s]	viscosity, 293.15 K [mPa·s]	viscosity, 298.15 K [mPa·s]	viscosity, 303.15 K [mPa·s]
x2 = 0	773.35	769.87	766.4	1357.4	1338.5	1319.8	3.408	3.035	2.708
x2 = 0.1	773.9	770.35	766.82	1349.6	1330.6	1311.8	3.204	2.852	2.544
x2 = 0.2	774.92	771.34	–	1343.3	1324.4	1305.6	3.109	2.77	2.471
x2 = 0.3	776.24	772.63	–	1336.8	1317.9	1299.1	2.998	2.675	2.387
x2 = 0.4	777.91	774.28	–	1329.7	1310.8	1292.1	2.935	2.616	2.332
x2 = 0.5	780.07	776.41	–	1322	1303.2	1284.6	2.9	2.578	2.294
x2 = 0.6	782.88	779.18	–	1313.4	1294.7	1276.2	2.854	2.535	2.249
x2 = 0.7	786.53	782.81	–	1303.1	1284.7	1266.4	2.874	2.543	2.246
x2 = 0.8	791.49	787.73	–	1290.7	1272.7	1254.7	2.875	2.541	2.244
x2 = 0.9	798.54	794.77	–	1275.4	1257.8	1240.2	2.856	2.52	2.219
